Data published in PubChem BioAssay (NCI).
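1) Cells in 96-well plates. 2) Compound, 48 h, 5 concentrations. 3) Linear interpolation between surrounding doses. 4) Unreached endpoint = highest concentration. GI50 = concentration required for 50% inhibition of growth. TGI: concentration producing complete growth inhibition.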

Columns and labels:
Test in all cases: NCI tumour cell line growth inhibition, 48 h; in the data active = GI50 below about 0.43 µM; inactive = the rest
MDA-MB-435 = test system: MDA-MB-435
PC-3 prostate = test system: PC-3 prostate
M14 melanoma = test system: M14 melanoma
NCI-H460 lung = test system: NCI-H460 lung
SF-295 CNS = test system: SF-295 CNS
UACC-257 melanoma = test system: UACC-257 melanoma
UO-31 renal = test system: UO-31 renal
BT-549 breast = test system: BT-549 breast
HT29 colon = test system: HT29 colon
A549 NSCLC = test system: A549 NSCLC
SF-268 CNS = test system: SF-268 CNS
LOX IMVI melanoma = test system: LOX IMVI melanoma
NCI-H522 lung = test system: NCI-H522 lung
HCT-116 colon = test system: HCT-116 colon
SK-MEL-2 melanoma = test system: SK-MEL-2 melanoma
HOP-92 NSCLC = test system: HOP-92 NSCLC
TK-10 renal = test system: TK-10 renal
HS 578T breast = test system: HS 578T breast
EKVX NSCLC = test system: EKVX NSCLC
OVCAR-5 ovarian = test system: OVCAR-5 ovarian
T-47D breast = test system: T-47D breast
ACHN renal = test system: ACHN renal
SF-539 CNS = test system: SF-539 CNS
OVCAR-3 ovarian = test system: OVCAR-3 ovarian
A498 renal = test system: A498 renal
HCC-2998 colon = test system: HCC-2998 colon
HOP-62 NSCLC = test system: HOP-62 NSCLC
KM12 colon = test system: KM12 colon
UACC-62 melanoma = test system: UACC-62 melanoma
MALME-3M melanoma = test system: MALME-3M melanoma
CAKI-1 renal = test system: CAKI-1 renal
SK-MEL-5 melanoma = test system: SK-MEL-5 melanoma
HCT-15 colon = test system: HCT-15 colon
SNB-75 CNS = test system: SNB-75 CNS
RXF 393 renal = test system: RXF 393 renal
OVCAR-4 ovarian = test system: OVCAR-4 ovarian
SK-MEL-28 melanoma = test system: SK-MEL-28 melanoma
DU-145 prostate = test system: DU-145 prostate
SW-620 colon = test system: SW-620 colon
MCF7 breast = test system: MCF7 breast
SR leukemia = test system: SR leukemia
SK-OV-3 ovarian = test system: SK-OV-3 ovarian
U251 CNS = test system: U251 CNS
COLO 205 colon = test system: COLO 205 colon
MDA-MB-231 breast = test system: MDA-MB-231 breast
786-0 renal = test system: 786-0 renal
SN12C renal = test system: SN12C renal
OVCAR-8 ovarian = test system: OVCAR-8 ovarian
MOLT-4 leukemia = test system: MOLT-4 leukemia
CCRF-CEM leukemia = test system: CCRF-CEM leukemia
SNB-19 CNS = test system: SNB-19 CNS
HL-60(TB) leukemia = test system: HL-60(TB) leukemia
RPMI-8226 leukemia = test system: RPMI-8226 leukemia
NCI-H226 lung = test system: NCI-H226 lung
IGROV1 ovarian = test system: IGROV1 ovarian
NCI-H23 lung = test system: NCI-H23 lung

CCNCCNc1cc(-c2ccc(Cl)c(Cl)c2)c(C#N)c2nc3ccccc3n12
3.41 µM: TGI (MALME-3M melanoma)
2.71 µM: TGI (MDA-MB-231 breast)
1.42 µM: TGI (HT29 colon)
inactive: GI50 (MDA-MB-435) 1.7 µM | GI50 (PC-3 prostate) 1.66 µM | GI50 (M14 melanoma) 1.72 µM | GI50 (NCI-H460 lung) 0.485 µM | GI50 (SF-295 CNS) 1.81 µM | GI50 (UACC-257 melanoma) 1.89 µM | GI50 (UO-31 renal) 1.6 µM | GI50 (BT-549 breast) 1.54 µM | GI50 (A549 NSCLC) 1.43 µM | GI50 (SF-268 CNS) 1.71 µM | GI50 (LOX IMVI melanoma) 1.21 µM | GI50 (NCI-H522 lung) 1.32 µM | GI50 (SK-MEL-2 melanoma) 1.58 µM | GI50 (HOP-92 NSCLC) 1.67 µM | GI50 (TK-10 renal) 1.69 µM | GI50 (HS 578T breast) 1.9 µM | GI50 (EKVX NSCLC) 1.75 µM | GI50 (OVCAR-5 ovarian) 1.87 µM | GI50 (T-47D breast) 1.43 µM | GI50 (ACHN renal) 1.39 µM | GI50 (A498 renal) 1.38 µM | GI50 (HCC-2998 colon) 1.69 µM | GI50 (HOP-62 NSCLC) 1.62 µM | GI50 (KM12 colon) 1.6 µM | GI50 (UACC-62 melanoma) 1.82 µM | GI50 (MALME-3M melanoma) 1.76 µM | GI50 (CAKI-1 renal) 1.56 µM | GI50 (SK-MEL-5 melanoma) 1.71 µM | GI50 (HCT-15 colon) 0.629 µM | GI50 (SNB-75 CNS) 1.46 µM | GI50 (RXF 393 renal) 1.5 µM | GI50 (OVCAR-4 ovarian) 1.23 µM | GI50 (SK-MEL-28 melanoma) 1.9 µM | GI50 (DU-145 prostate) 1.44 µM | GI50 (SW-620 colon) 0.578 µM | GI50 (MCF7 breast) 1.01 µM | GI50 (SK-OV-3 ovarian) 1.79 µM | GI50 (U251 CNS) 0.757 µM | GI50 (MDA-MB-231 breast) 1.21 µM | GI50 (786-0 renal) 1.66 µM
3.11 µM: TGI (TK-10 renal)
1.08 µM: TGI (HCT-116 colon)
2.88 µM: TGI (A498 renal)
2.87 µM: TGI (ACHN renal)
3.21 µM: TGI (HCC-2998 colon)
active: GI50 (HT29 colon) 0.369 µM | GI50 (HCT-116 colon) 0.278 µM | GI50 (SF-539 CNS) 0.224 µM | GI50 (OVCAR-3 ovarian) 0.248 µM | GI50 (SR leukemia) 0.287 µM | GI50 (COLO 205 colon) 0.421 µM
1.91 µM: TGI (NCI-H460 lung)
0.58 µM: TGI (SF-539 CNS) | TGI (OVCAR-3 ovarian)
3.2 µM: TGI (T-47D breast)
2.8 µM: TGI (NCI-H522 lung)
2.76 µM: TGI (DU-145 prostate)
3.55 µM: TGI (OVCAR-5 ovarian)
3.54 µM: TGI (SK-MEL-28 melanoma)
2.96 µM: TGI (SNB-75 CNS)
1.63 µM: TGI (COLO 205 colon)
3.14 µM: TGI (MDA-MB-435)
2.15 µM: TGI (U251 CNS)
3.15 µM: TGI (KM12 colon)
2.46 µM: TGI (MCF7 breast)
3.19 µM: TGI (PC-3 prostate)
3.12 µM: TGI (UO-31 renal) | TGI (SK-MEL-5 melanoma)
3.52 µM: TGI (UACC-257 melanoma)
> 100 µM: TGI (SR leukemia)
3.23 µM: TGI (SK-OV-3 ovarian)
3.28 µM: TGI (HOP-92 NSCLC)
3.01 µM: TGI (A549 NSCLC)
1.92 µM: TGI (HCT-15 colon)
4.43 µM: TGI (HS 578T breast)
3.33 µM: TGI (SF-268 CNS) | TGI (EKVX NSCLC)
2.07 µM: TGI (SW-620 colon)
3.18 µM: TGI (HOP-62 NSCLC) | TGI (786-0 renal)
2.9 µM: TGI (BT-549 breast) | TGI (CAKI-1 renal)
3.24 µM: TGI (M14 melanoma) | TGI (SF-295 CNS)
2.94 µM: TGI (RXF 393 renal)
3.56 µM: TGI (UACC-62 melanoma)
2.53 µM: TGI (LOX IMVI melanoma) | TGI (OVCAR-4 ovarian)
3.07 µM: TGI (SK-MEL-2 melanoma)

COc1ccc(/C=C/C(=O)Nc2cc(/C=C\c3cc(OC)c(OC)c(OC)c3)cc(OC)c2OC)cc1OC
6.42 µM: TGI (RXF 393 renal)
4.52 µM: TGI (MDA-MB-435)
8.48 µM: TGI (SK-OV-3 ovarian)
7.46 µM: TGI (SNB-75 CNS)
inactive: GI50 (MDA-MB-435) 1.29 µM | GI50 (SN12C renal) 3.96 µM | GI50 (PC-3 prostate) 3.06 µM | GI50 (OVCAR-8 ovarian) 3.44 µM | GI50 (M14 melanoma) 3.01 µM | GI50 (NCI-H460 lung) 3.37 µM | GI50 (MOLT-4 leukemia) 3.35 µM | GI50 (CCRF-CEM leukemia) 2.48 µM | GI50 (UACC-257 melanoma) 6.5 µM | GI50 (UO-31 renal) 2.31 µM | GI50 (BT-549 breast) 3.36 µM | GI50 (HT29 colon) 3.64 µM | GI50 (A549 NSCLC) 3.69 µM | GI50 (SF-268 CNS) 9.1 µM | GI50 (SNB-19 CNS) 4.3 µM | GI50 (LOX IMVI melanoma) 4 µM | GI50 (HCT-116 colon) 3.71 µM | GI50 (SK-MEL-2 melanoma) 3.05 µM | GI50 (HOP-92 NSCLC) > 100 µM | GI50 (HL-60(TB) leukemia) 2.3 µM | GI50 (TK-10 renal) 5.13 µM | GI50 (HS 578T breast) 8.92 µM | GI50 (EKVX NSCLC) 3.47 µM | GI50 (OVCAR-5 ovarian) 6.49 µM | GI50 (T-47D breast) 2.21 µM | GI50 (ACHN renal) 4.68 µM | GI50 (RPMI-8226 leukemia) 2.14 µM | GI50 (SF-539 CNS) 3.7 µM | GI50 (OVCAR-3 ovarian) 5.53 µM | GI50 (A498 renal) 4.92 µM | GI50 (HCC-2998 colon) 6.95 µM | GI50 (HOP-62 NSCLC) 3.15 µM | GI50 (KM12 colon) 4.22 µM | GI50 (UACC-62 melanoma) 2.21 µM | GI50 (MALME-3M melanoma) 2.8 µM | GI50 (NCI-H226 lung) 3.62 µM | GI50 (CAKI-1 renal) 2.16 µM | GI50 (SK-MEL-5 melanoma) 1.61 µM | GI50 (IGROV1 ovarian) 7.48 µM | GI50 (HCT-15 colon) 3.58 µM | GI50 (SNB-75 CNS) 1.68 µM | GI50 (RXF 393 renal) 2.23 µM | GI50 (OVCAR-4 ovarian) 2.49 µM | GI50 (SK-MEL-28 melanoma) 2.87 µM | GI50 (NCI-H23 lung) 3.48 µM | GI50 (DU-145 prostate) 26.6 µM | GI50 (SW-620 colon) 5.05 µM | GI50 (MCF7 breast) 2.44 µM | GI50 (SR leukemia) 0.668 µM | GI50 (SK-OV-3 ovarian) 3.02 µM | GI50 (U251 CNS) 4.22 µM | GI50 (COLO 205 colon) 2.65 µM | GI50 (MDA-MB-231 breast) 6.65 µM | GI50 (786-0 renal) 2.98 µM
6.55 µM: TGI (COLO 205 colon)
3.65 µM: TGI (SK-MEL-5 melanoma)
> 100 µM: TGI (SN12C renal) | TGI (PC-3 prostate) | TGI (OVCAR-8 ovarian) | TGI (M14 melanoma) | TGI (NCI-H460 lung) | TGI (MOLT-4 leukemia) | TGI (CCRF-CEM leukemia) | TGI (UACC-257 melanoma) | TGI (UO-31 renal) | TGI (HT29 colon) | TGI (A549 NSCLC) | TGI (SF-268 CNS) | TGI (SNB-19 CNS) | TGI (LOX IMVI melanoma) | TGI (HCT-116 colon) | TGI (HOP-92 NSCLC) | TGI (TK-10 renal) | TGI (HS 578T breast) | TGI (EKVX NSCLC) | TGI (OVCAR-5 ovarian) | TGI (ACHN renal) | TGI (RPMI-8226 leukemia) | TGI (SF-539 CNS) | TGI (OVCAR-3 ovarian) | TGI (A498 renal) | TGI (HCC-2998 colon) | TGI (HOP-62 NSCLC) | TGI (KM12 colon) | TGI (UACC-62 melanoma) | TGI (MALME-3M melanoma) | TGI (NCI-H226 lung) | TGI (CAKI-1 renal) | TGI (IGROV1 ovarian) | TGI (HCT-15 colon) | TGI (OVCAR-4 ovarian) | TGI (SK-MEL-28 melanoma) | TGI (NCI-H23 lung) | TGI (DU-145 prostate) | TGI (SW-620 colon) | TGI (MCF7 breast) | TGI (SR leukemia) | TGI (U251 CNS) | TGI (MDA-MB-231 breast) | TGI (786-0 renal)
9.4 µM: TGI (SK-MEL-2 melanoma)
7.66 µM: TGI (HL-60(TB) leukemia)
57.8 µM: TGI (BT-549 breast)
8.73 µM: TGI (T-47D breast)
